Reference: article PMC12697872, “Rethinking the AI Paradigm for Solubility Prediction of Drug‑Like Compounds with Dual‐Perspective Modeling and Experimental Validation” (Advanced Science, 2025)
“And” between values parts separate entries of the source, which are not always exact repeats. Equal values may be shown once.

How the values were obtained:
[1] = cited from earlier work; for LogS(mol/L): SC2-1 dataset (Second Solubility Challenge, tight subset), aqueous solubility; for Class: SC2-1 dataset, aqueous solubility class 0-6
[2] = Saturation shake-flask aqueous solubility, gravimetric determination
Method: Excess solid drug was added to a vial to prepare supersaturated aqueous solutions. The vial was placed in a constant temperature mixer (Titan Technology, SD2‐100) at 25 °C and shaken for 48 h at a speed of 500 rpm. […] After equilibration, the solution was centrifugated at room temperature at 8000 rpm, and the supernatant was collected. The concentration of the supernatant was determined using the gravimetric method. A measured volume of the supernatant (e.g. 1 mL) was transferred to a pre‐weighted empty vial, dried in a vacuum oven at 70 °C, and re‐weighed. The difference between the initial and final weights represents the drug content in the saturated solution. Each compound was tested in triplicate to ensure accuracy.

Row | Structure (SMILES) | LogS(mol/L) [1] [mol/L] | Class [1] | further results
1 | CC(=O)S[C@@H]1CC2=CC(=O)CC[C@]2(C)[C@H]2CC[C@@]3(C)[C@@H](CC[C@@]34CCC(=O)O4)[C@H]12 | -4.21 | 6 (Practically insoluble or insoluble (6)) | 
2 | CCn1cc(C(=O)O)c(=O)c2cc(F)c(N3CCNCC3)cc21 | -2.88 | 5 (Very slightly soluble (5)) | 
3 | CN1CCN(c2cc3c(cc2F)c(=O)c(C(=O)O)cn3-c2ccc(F)cc2)CC1 | -3.83 | 6 (Practically insoluble or insoluble (6)) | 
4 | COc1cc([C@@H]2c3cc4c(cc3[C@@H](O[C@@H]3O[C@@H]5CO[C@@H](C)O[C@H]5[C@H](O)[C@H]3O)C3COC(=O)[C@@H]32)OCO4)cc(OC)c1O (some centres unmarked) | -3.6 | 5 (Very slightly soluble (5)) | 
5 | COc1ccc2c(c1OC)C(=O)O[C@@H]2[C@H]1c2c(cc3c(c2OC)OCO3)CCN1C | -4.48 | 6 (Practically insoluble or insoluble (6)) | 
6 | COc1ccc2c(c1)c(CC(=O)O)c(C)n2C(=O)c1ccc(Cl)cc1 | -5.48 | 6 (Practically insoluble or insoluble (6)) | 
7 | COc1ccc([C@@H]2Sc3ccccc3N(CCN(C)C)C(=O)[C@@H]2OC(C)=O)cc1 | -3.02 | 5 (Very slightly soluble (5)) | 
8 | CS(=O)(=O)c1ccc(C2=C(c3ccccc3)C(=O)OC2)cc1 | -4.61 | 6 (Practically insoluble or insoluble (6)) | 
9 | Cc1c(O)cccc1C(=O)N[C@@H](CSc1ccccc1)[C@H](O)CN1C[C@H]2CCCC[C@H]2C[C@H]1C(=O)NC(C)(C)C | -6.21 | 6 (Practically insoluble or insoluble (6)) | 
10 | Cc1ccccc1N1C(=O)c2cc(S(N)(=O)=O)c(Cl)cc2NC1C (centres unmarked) | -3.88 | 6 (Practically insoluble or insoluble (6)) | 
11 | Nc1nc(=O)c2nc(CNc3ccc(C(=O)N[C@@H](CCC(=O)O)C(=O)O)cc3)cnc2[nH]1 | -5.96 | 6 (Practically insoluble or insoluble (6)) | 
12 | O=C1CCc2ccc(OCCCCN3CCN(c4cccc(Cl)c4Cl)CC3)cc2N1 | -6.64 | 6 (Practically insoluble or insoluble (6)) | 
13 | O=C1C(O)=C(C2CCC(c3ccc(Cl)cc3)CC2)C(=O)c2ccccc21 (centres unmarked) | -6.07 | 6 (Practically insoluble or insoluble (6)) | 
14 | O=C(CCCN1CCC(O)(c2ccc(Cl)cc2)CC1)c1ccc(F)cc1 | -5.71 | 6 (Practically insoluble or insoluble (6)) | 
15 | CC(=O)N1CCN(c2ccc(OC[C@H]3CO[C@](Cn4ccnc4)(c4ccc(Cl)cc4Cl)O3)cc2)CC1 (racemic) | -5.47 | 6 (Practically insoluble or insoluble (6)) | 
16 | N[C@@H](Cc1ccc(I)cc1)C(=O)O [4-Iodo-L-phenylalanine] |  |  | Experimental Log S ([2]; averaged over triplicate): -2.7425; Experimental S ([2]; averaged over triplicate): 0.5633; Experimental Log S ([2]; single replicate of triplicate): -2.6716 and -2.9727 and -2.5832; Experimental S ([2]; single replicate of triplicate): 0.6200 and 0.3100 and 0.7600
17 | Cc1cc(=O)oc2cc(O[C@@H]3O[C@H](CO)[C@@H](O)[C@H](O)[C@H]3O)ccc12 [4-methylumbelliferyl β-D-glucoside] |  |  | Experimental Log S ([2]; averaged over triplicate): -1.8858; Experimental S ([2]; averaged over triplicate): 4.4033; Experimental Log S ([2]; single replicate of triplicate): -1.8647 and -1.9030 and -1.8898; Experimental S ([2]; single replicate of triplicate): 4.6200 and 4.2300 and 4.3600
18 | CC1=NS(=O)(=O)c2cc(Cl)ccc2N1 [CC1=NS(=O)(=O)c2cc(Cl)ccc2N1] | -3.43 | 6 (Practically insoluble or insoluble (6)) | 
19 | CC(=O)Nc1nnc(S(N)(=O)=O)s1 [CC(=O)Nc1nnc(S(N)(=O)=O)s1] | -2.38 | 5 (Very slightly soluble (5)) | 
20 | CC(=O)Oc1ccccc1C(=O)O [CC(=O)Oc1ccccc1C(=O)O] | -1.67 | 4 (Slightly soluble (4)) | 
21 | CC(C(=O)O)c1ccc(-c2ccccc2)c(F)c1 (centres unmarked) [CC(C(=O)O)c1ccc(-c2ccccc2)c(F)c1] | -4.34 | 6 (Practically insoluble or insoluble (6)) | 
22 | CC(C(=O)O)c1ccc(N2Cc3ccccc3C2=O)cc1 (centres unmarked) [CC(C(=O)O)c1ccc(N2Cc3ccccc3C2=O)cc1] | -4.65 | 6 (Practically insoluble or insoluble (6)) | 
23 | CC(C)NCC(O)COc1cccc2[nH]ccc12 (centres unmarked) [CC(C)NCC(O)COc1cccc2[nH]ccc12] | -3.75 | 6 (Practically insoluble or insoluble (6)) | 
24 | CC(CN1c2ccccc2Sc2ccccc21)N(C)C (centres unmarked) [CC(CN1c2ccccc2Sc2ccccc21)N(C)C] | -4.38 | 6 (Practically insoluble or insoluble (6)) | 

Row | Structure (SMILES) | LogS(mol/L) [1] [mol/L] | Class [1] | further results
25 | CCC1(c2ccccc2)C(=O)NCNC1=O [CCC1(c2ccccc2)C(=O)NCNC1=O] | -2.53 | 5 (Very slightly soluble (5)) | 
26 | CCC(C)C1(CC)C(=O)NC(=O)NC1=O (centres unmarked) [CCC(C)C1(CC)C(=O)NC(=O)NC1=O] | -2.22 | 4 (Slightly soluble (4)) | 
27 | CCCCC1C(=O)N(c2ccccc2)N(c2ccc(O)cc2)C1=O (centres unmarked) [CCCCC1C(=O)N(c2ccccc2)N(c2ccc(O)cc2)C1=O] | -3.94 | 6 (Practically insoluble or insoluble (6)) | 
28 | CCCCNc1ccc(C(=O)OCCN(C)C)cc1 [CCCCNc1ccc(C(=O)OCCN(C)C)cc1] | -3.11 | 5 (Very slightly soluble (5)) | 
29 | CCCN(CCC)S(=O)(=O)c1ccc(C(=O)O)cc1 [CCCN(CCC)S(=O)(=O)c1ccc(C(=O)O)cc1] | -4.83 | 6 (Practically insoluble or insoluble (6)) | 
30 | CCCNC(=O)NS(=O)(=O)c1ccc(Cl)cc1 [CCCNC(=O)NS(=O)(=O)c1ccc(Cl)cc1] | -3.17 | 5 (Very slightly soluble (5)) | 
31 | CCOc1ccc2nc(S(N)(=O)=O)sc2c1 [CCOc1ccc2nc(S(N)(=O)=O)sc2c1] | -3.76 | 6 (Practically insoluble or insoluble (6)) | 
32 | CN(C)CCCN1c2ccccc2Sc2ccccc21 [CN(C)CCCN1c2ccccc2Sc2ccccc21] | -4.45 | 6 (Practically insoluble or insoluble (6)) | 
33 | COC(=O)Nc1nc2ccccc2[nH]1 [COC(=O)Nc1nc2ccccc2[nH]1] | -4.56 | 6 (Practically insoluble or insoluble (6)) | 
34 | COc1ccc2cc(CCC(C)=O)ccc2c1 [COc1ccc2cc(CCC(C)=O)ccc2c1] | -4.4 | 6 (Practically insoluble or insoluble (6)) | 
35 | COc1ccc(Cc2nccc3cc(OC)c(OC)cc23)cc1OC [COc1ccc(Cc2nccc3cc(OC)c(OC)cc23)cc1OC] | -4.33 | 6 (Practically insoluble or insoluble (6)) | 
36 | Cc1ccnc2c1NC(=O)c1cccnc1N2C1CC1 [Cc1ccnc2c1NC(=O)c1cccnc1N2C1CC1] |  | 5 (Very slightly soluble (5)) | 
37 | NCC(CC(=O)O)c1ccc(Cl)cc1 (centres unmarked) [NCC(CC(=O)O)c1ccc(Cl)cc1] | -1.78 | 4 (Slightly soluble (4)) | 
38 | N[C@@H](Cc1ccc(O)c(O)c1)C(=O)O [N[C@@H](Cc1ccc(O)c(O)c1)C(=O)O] | -1.76 | 4 (Slightly soluble (4)) | 
39 | Nc1ccc(N=Nc2ccccc2)c(N)n1 [Nc1ccc(N=Nc2ccccc2)c(N)n1] | -4.02 | 6 (Practically insoluble or insoluble (6)) | 
40 | Nc1ccc(S(=O)(=O)Nc2nccs2)cc1 [Nc1ccc(S(=O)(=O)Nc2nccs2)cc1] | -2.62 | 5 (Very slightly soluble (5)) | 
41 | Nc1nc(N)c2nc(-c3ccccc3)c(N)nc2n1 [Nc1nc(N)c2nc(-c3ccccc3)c(N)nc2n1] | -4.11 | 6 (Practically insoluble or insoluble (6)) | 
42 | O=C1CCc2cc(OCCCCc3nnnn3C3CCCCC3)ccc2N1 [O=C1CCc2cc(OCCCCc3nnnn3C3CCCCC3)ccc2N1] | -4.93 | 6 (Practically insoluble or insoluble (6)) | 
43 | O=C1CN=C(c2ccccn2)c2cc(Br)ccc2N1 [O=C1CN=C(c2ccccn2)c2cc(Br)ccc2N1] | -3.39 | 5 (Very slightly soluble (5)) | 
44 | O=C1Nc2ccc(Cl)cc2C(c2ccccc2)=NC1O (centres unmarked) [O=C1Nc2ccc(Cl)cc2C(c2ccccc2)=NC1O] |  | 6 (Practically insoluble or insoluble (6)) | 
45 | O=c1[nH]c(=O)c2[nH]cnc2[nH]1 [O=c1[nH]c(=O)c2[nH]cnc2[nH]1] |  | 6 (Practically insoluble or insoluble (6)) | 
46 | Oc1ccc(/C=C/c2cc(O)cc(O)c2)cc1 [Oc1ccc(/C=C/c2cc(O)cc(O)c2)cc1] |  | 6 (Practically insoluble or insoluble (6)) | 
47 | c1ccc2c(c1)[nH]c1ccccc12 [c1ccc2c(c1)[nH]c1ccccc12] | -5.19 | 6 (Practically insoluble or insoluble (6)) | 
48 | c1ccc(Nc2ccccc2)cc1 [c1ccc(Nc2ccccc2)cc1] |  | 6 (Practically insoluble or insoluble (6)) | 
